From paper PMC9608075 (Pharmaceutics, 2022)

Columns and labels:
human recombinant GCPII = human recombinant GCPII (Homo sapiens, UniProt Q04609); assay: GCPII activity assay (radioactivity-based, NAA-[3H]-G); format: biochemical; settings: for IC50: human recombinant GCPII
Procedure: Inhibition potencies against GCPII (IC50 values) were determined using previously described methods with minor modifications. Briefly, reactions were carried out in the presence of NAA-[^3H]-G and human recombinant GCPII enzyme in Tris-HCl and CoCl2 at 37 °C for 20 min. Reactions were stopped with ice-cold sodium phosphate buffer containing 1 mM EDTA. Aliquots were then transferred to 96-well spin columns containing AG1X8 ion-exchange resin and centrifuged. NAA-[^3H]-G was bound to the resin and [^3H]-G eluted in the flow-through. Columns were washed with formate to ensure complete elution of [^3H]-G. The flow-through and the washes were collected, and aliquots were transferred and dried to completion in a solid scintillator-coated 96-well plate. The radioactivity corresponding to [^3H]-G was determined with a scintillation counter. Subsequently, IC50 curves were generated from CPM results.
The inhibitory potencies of the catechols were determined using a modified radioactivity-based assay involving human recombinant GCPII enzyme as previously reported. Based on literature reports of catecholic moieties binding to zinc metalloproteases, we tested the potency of L-DOPA (1) against GCPII activity and discovered that it is a submicromolar inhibitor. […] This prompted us to evaluate analogs of L-DOPA (Table 1) to determine the essential structural features responsible for its GCPII inhibitory activity. […] Subsequently, we tested L-DOPA analogs retaining the catechol moiety (compounds 5–10). […] Taken together, these structure–activity relationship (SAR) studies highlight the critical role played by the catechol and carboxylate groups of L-DOPA in GPCII inhibition as well as the insignificant contribution of the alpha amino group.

[1] = Metabolic stability in mouse plasma; format: in vitro ADME; settings: 37 °C, 60 min
Procedure: (§1) Briefly, brain homogenates were prepared by adding 9X of 0.1 M potassium phosphate buffer to weighed tissue and homogenization using a probe sonicator. Plasma and crude brain homogenate (1 mL each) were spiked with the analyte to give a final concentration of 10 µM and then incubated at 37 °C for 1 h. At predetermined time points (0, 30, and 60 min), an aliquot from each matrix was quenched with 3X volume of acetonitrile containing the internal standard (IS; losartan: 0.5 μM) and vortex-mixed for 30 s. The final mixtures were centrifuged at 10,000× g for 10 min at 4 °C and supernatants were used for LC-MS analyses.
(§2) The samples were analyzed using a Dionex Ultimate 3000 ultra-high-performance LC system coupled with a Q Exactive Focus orbitrap mass spectrometer (Thermo Fisher Scientific Inc., Waltham MA, USA) operated with a heated electrospray ionization (HESI) ion source. […] The mass spectrometer was operated in switching ionization mode to collect both positive and negative molecular ions while being controlled by Xcalibur software 4.0.27.13 (Thermo Scientific). Analytes were quantified and the disappearance of the respective catechols was monitored in the full-scan mode (from m/z 50 to 1600) by comparing samples at the different time-points.

in vitro = in vitro ADME; settings: mouse, brain homogenate
Procedure: as §1, §2

[2] = Metabolite identification (MET-ID) in spiked brain homogenate; format: in vitro ADME, mouse; settings: 30 min post-spike
[3] = Initial two time-point pharmacokinetic study in mice; format: in vivo, mouse; settings: 50 mg/kg PO; for brain levels: at both time points (30 and 60 min); for concentration at 30 min: 30 min post dose
Procedure: For in vivo PK studies, male CD-1 mice (Harlan Laboratories, Indianapolis, IN, USA) weighing 25-30 g were used. The mice were maintained on a 12 h light-dark cycle with ad libitum access to food and water. […] Brains were dissected and immediately flash frozen (-80 °C). […] Caffeic acid was analyzed underivatized. […] Plasma and brain tissue samples were processed by matching dilutions of the calibration standards. […] Then, 2 μL of the sample was analyzed using LC/MS/MS system. […] Plasma and brain tissue samples were processed by matching the dilutions of calibration standards of the respective tissues. […] The solutions were vortexed for 15 s and then allowed to sit at room temperature for 45 min. These mixtures were vortexed again for 10 s and centrifuged at 10,000× g for 10 min to collect the supernatant. Then, 2 μL of the sample was injected into the LC/MS/MS system for analysis. Chromatographic analysis was performed using a Thermo Scientific Vanquish UPLC system consisting of an analytical pump and an autosampler coupled with a […] spectrometer. […] The mobile phase was delivered as a gradient at a flow rate of 0.400 mL/min. […] The analyte was monitored using a ThermoScientific […] triple-quadrupole mass-spectrometric detector equipped with an electrospray interface, and operated in negative ion mode. The instrument was controlled by Thermo Scientific Xcalibur (version 4.2.47) software.

in vivo = settings: male, CD-1, mouse
Procedure: All of the formulations were freshly prepared prior to the dosing. […] Brain and plasma collection were carried out as described above. […] Plasma and brain tissue samples were processed by matching the dilutions of calibration standards of the respective tissues. […] The solutions were vortexed for 15 s and then allowed to sit at room temperature for 45 min. These mixtures were vortexed again for 10 s and centrifuged at 10,000× g for 10 min to collect the supernatant. Then, 2 μL of the sample was injected into the LC/MS/MS system for analysis. Chromatographic analysis was performed using a Thermo Scientific Vanquish UPLC system consisting of an analytical pump and an autosampler coupled with a […] spectrometer. […] The mobile phase was delivered as a gradient at a flow rate of 0.400 mL/min. […] The analyte was monitored using a ThermoScientific […] triple-quadrupole mass-spectrometric detector equipped with an electrospray interface, and operated in negative ion mode. The instrument was controlled by Thermo Scientific Xcalibur (version 4.2.47) software.

GCPII = molecular target: T1, GCPII (Mus musculus, UniProt O35409); assay: D-DOPA target engagement: ex vivo GCPII activity in mouse brain; settings: for brain GCPII activity, effect in words: 30 min
T1 construct: from tissue
T1 sequence (O35409 whole entry): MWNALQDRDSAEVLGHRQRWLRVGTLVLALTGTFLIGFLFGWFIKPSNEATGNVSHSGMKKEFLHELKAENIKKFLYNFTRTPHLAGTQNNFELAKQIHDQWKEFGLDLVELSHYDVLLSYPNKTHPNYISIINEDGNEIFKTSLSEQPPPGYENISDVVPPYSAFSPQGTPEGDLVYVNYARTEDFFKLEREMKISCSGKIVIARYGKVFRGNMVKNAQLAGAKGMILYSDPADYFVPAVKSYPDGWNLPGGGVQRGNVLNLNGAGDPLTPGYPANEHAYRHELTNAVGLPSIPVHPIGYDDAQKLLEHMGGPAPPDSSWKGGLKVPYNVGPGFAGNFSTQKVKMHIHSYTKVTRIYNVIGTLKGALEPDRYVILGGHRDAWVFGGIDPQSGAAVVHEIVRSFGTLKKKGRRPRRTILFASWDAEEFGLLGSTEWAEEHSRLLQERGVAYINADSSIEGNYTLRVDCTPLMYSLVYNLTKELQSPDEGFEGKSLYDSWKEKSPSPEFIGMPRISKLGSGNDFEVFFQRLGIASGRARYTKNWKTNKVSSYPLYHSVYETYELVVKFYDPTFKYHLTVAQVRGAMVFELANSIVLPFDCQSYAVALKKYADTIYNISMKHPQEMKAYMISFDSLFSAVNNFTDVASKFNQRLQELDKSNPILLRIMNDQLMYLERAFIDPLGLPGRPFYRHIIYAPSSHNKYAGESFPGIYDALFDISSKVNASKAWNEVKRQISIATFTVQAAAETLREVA

[4] = male, CD-1, mouse, plasma, read-out: plasma levels

Sequence of human recombinant GCPII (Q04609 whole entry): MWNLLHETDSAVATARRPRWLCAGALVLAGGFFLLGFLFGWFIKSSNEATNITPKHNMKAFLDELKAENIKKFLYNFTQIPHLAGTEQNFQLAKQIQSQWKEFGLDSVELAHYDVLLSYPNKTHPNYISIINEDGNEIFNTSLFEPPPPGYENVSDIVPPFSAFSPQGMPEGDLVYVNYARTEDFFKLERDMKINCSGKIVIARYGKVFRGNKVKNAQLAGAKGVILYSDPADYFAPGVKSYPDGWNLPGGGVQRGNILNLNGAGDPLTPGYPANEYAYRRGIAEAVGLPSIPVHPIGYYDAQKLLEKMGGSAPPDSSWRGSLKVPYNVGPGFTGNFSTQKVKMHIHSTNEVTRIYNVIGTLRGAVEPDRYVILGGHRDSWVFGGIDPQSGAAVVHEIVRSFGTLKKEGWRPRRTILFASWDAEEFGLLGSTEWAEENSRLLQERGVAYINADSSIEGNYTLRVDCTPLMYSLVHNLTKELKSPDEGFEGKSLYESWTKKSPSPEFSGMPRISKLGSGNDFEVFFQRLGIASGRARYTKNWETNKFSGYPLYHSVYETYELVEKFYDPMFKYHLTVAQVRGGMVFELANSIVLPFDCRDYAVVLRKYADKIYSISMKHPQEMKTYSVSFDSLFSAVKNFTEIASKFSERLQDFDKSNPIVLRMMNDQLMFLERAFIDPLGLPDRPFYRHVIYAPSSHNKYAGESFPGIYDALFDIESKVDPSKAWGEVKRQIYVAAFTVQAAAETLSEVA

Compound `N[C@@H](Cc1ccc(O)cc1)C(=O)O` [Compound 2, Tyr] has an IC50 (human recombinant GCPII) of 100 µM.

Compound `N[C@H](Cc1ccc(O)c(O)c1)C(=O)O` [Compound 10, D-DOPA] has an IC50 (human recombinant GCPII) of 0.2 µM, a remaining at 1 h, 10 µM [1] of 100% and a remaining at 1 h, 10 µM (in vitro) of 82%. For the same compound, the “Dopamine release in spiked brain homogenate” value [2] was “not observed”, the brain levels [3] was ~ 1 nmol/g and the concentration at 30 min [3, 4] was 84.3 µM. The concentration at 1 h ([3]; male, CD-1, mouse, plasma, one hour post dose, read-out: plasma levels) was 21.5 µM, the bioavailability (in vivo) was 47.7% and the AUC(0-t) (in vivo; iv, 10 mg/kg) was 30.5 µM·h. For the same compound, the clearance (in vivo; iv, 10 mg/kg, Cl) was 28 mL/min/kg, the Cmax (in vivo; iv, 10 mg/kg, Cmax) was 61.1 µM and the Tmax (in vivo; iv, 10 mg/kg, Tmax) was 5 min. The clearance (in vivo; iv, 10 mg/kg, clearance (Cl)) was 28 mL/min/kg, the half-life (in vivo; iv, 10 mg/kg, half-life (t1/2)) was 21 min and the AUC(0-t) (in vivo; po, 50 mg/kg) was 72.7 µM·h. It also gave an AUCbrain (in vivo; po, 50 mg/kg) of 2.42 nmol/g, a Cmax (in vivo; po, 50 mg/kg) of 1.74 µM and a Tmax (in vivo; po, 50 mg/kg) of 15 min. The Kp (in vivo; po, 50 mg/kg, AUCBrain/Plasma ratio (brain penetration index)) was 0.03, the Cmax (in vivo; po, 50 mg/kg, Cmax) was 99 µM and the Tmax (in vivo; po, 50 mg/kg, Tmax) was 30 min. For the same compound, the “brain GCPII activity, effect in words” value (GCPII; PO 50 mg/kg + sodium benzoate IP 400 mg/kg, p < 0.001 vs untreated) was “significant inhibition”, the “brain GCPII activity, effect in words” value (GCPII; monotherapy PO 50 mg/kg, p < 0.01 vs untreated) was “significant inhibition” and the inhibition at 50 mg/kg (GCPII; mouse, po) was roughly 25%.

Compound `C[C@](N)(Cc1ccc(O)c(O)c1)C(=O)O` [Compound 5] has an IC50 (human recombinant GCPII) greater than 100 µM.

In the case of `NC(Cc1ccc(=O)n(O)c1)C(=O)O` (stereo not shown) [Compound 4], the IC50 (human recombinant GCPII) is reported as greater than 100 µM.

For `NCCc1ccc(O)c(O)c1` [Compound 7, Dopamine, reference compound], the IC50 (human recombinant GCPII) was greater than 100 µM.

In the case of `CC(=O)N[C@@H](Cc1ccc(O)c(O)c1)C(=O)O` [Compound 6], the IC50 (human recombinant GCPII) is reported as 20 µM.

`O=C(O)/C=C/c1ccc(O)c(O)c1` [Compound 9, Caffeic Acid] gave an IC50 (human recombinant GCPII) of 0.3 µM, a remaining at 1 h, 10 µM [1] of 56% and a remaining at 1 h, 10 µM (in vitro) of 98%. The “plasma levels following oral administration” value ([3]; 30 and 60 min) was 6 to 7 µM, the brain levels [3] was less than 0.01 nmol/g and the concentration at 30 min [3, 4] was 6.47 µM.

`N[C@@H](Cc1ccc(O)c(O)c1)C(=O)O` [Compound 1, L-DOPA, reference compound] gave an IC50 (human recombinant GCPII) of 0.6 µM, a remaining at 1 h, 10 µM [1] of 64% and a remaining at 0.5 h, 10 µM (in vitro) of 0%. The “Dopamine release in spiked brain homogenate” value [2] was “observed”, the brain levels [3] was less than 0.10 nmol/g and the concentration at 30 min [3, 4] was 3.74 µM.

In the case of `O=C(O)CCc1ccc(O)c(O)c1` [Compound 8], the IC50 (human recombinant GCPII) is reported as 4 µM and the “decrease in inhibitory potency” value (human recombinant GCPII; versus L-DOPA) is reported as 6.7 fold.
